Six compounds from ChEMBL document CHEMBL1138190, “Synthesis and antibacterial activity of novel C12 vinyl ketolides” (J Med Chem, 2006) can be followed below.

In brackets after ≈: the same amount, converted by molar mass.

Assay type in all cases: functional
Assay [1] deals with Staphylococcus epidermidis. The experiment in a line: Antibacterial activity against Staphylococcus epidermidis 14990.
Assay [2] deals with Streptococcus pneumoniae. The experiment in a line: Antibacterial activity against Streptococcus pneumoniae Mef S 3427.
The test system of assay [3] is Enterococcus faecalis. The experiment in a line: Antibacterial activity against Enterococcus faecalis bc11148-2.
Assay [4] has as its system Haemophilus influenzae. The experiment in a line: Antibacterial activity against Haemophilus influenzae 49247.
Assay [5] deals with Streptococcus pneumoniae. Briefly: Antibacterial activity against Streptococcus pneumoniae 280-962.
In assay [6] the test system is Staphylococcus aureus. The experiment in a line: Antibacterial activity against Staphylococcus aureus 29213.
Assay [7] concerns Streptococcus pneumoniae. The experiment in a line: Antibacterial activity against Streptococcus pneumoniae 297-749.
The test system of assay [8] is Streptococcus pneumoniae. The experiment in a line: Antibacterial activity against Streptococcus pneumoniae 49619.
Assay [9] relates to Staphylococcus aureus. The experiment in a line: Antibacterial activity against Staphylococcus aureus 33591.
A further assay deals with Streptococcus pyogenes. The experiment in a line: Antibacterial activity against Streptococcus pyogenes 8668.
Assay [10] has as its system Haemophilus influenzae. The experiment in a line: Antibacterial activity against Haemophilus influenzae 2762.
Assay [11] has as its system Enterococcus faecalis. The experiment in a line: Antibacterial activity against Enterococcus faecalis 29212.
Assay [12] relates to Streptococcus pneumoniae. Briefly: Antibacterial activity against Streptococcus pneumoniae Mef 5654.
The test system of assay [13] is Streptococcus pneumoniae. The experiment in a line: Antibacterial activity against Streptococcus pneumoniae Erm 6849.
For assay [14], the system named is Staphylococcus epidermidis. Briefly: Antibacterial activity against Staphylococcus epidermidis f50654.

In the case of `C=C[C@]12OC(=O)N(CCN(C)Cc3ccc(-c4cccnc4)s3)[C@@H]1[C@@H](C)C(=O)[C@H](C)C[C@@](C)(OC)[C@H](O[C@@H]1O[C@H](C)C[C@H](N(C)C)[C@H]1O)[C@@H](C)C(=O)[C@@H](C)C(=O)O[C@@H]2CC`, the MIC in assay [1] is 0.1 µg/mL (≈ 0.117 µM); with Streptococcus pneumoniae [2] it was 0.1 µg/mL (≈ 0.117 µM); in the assay with Enterococcus faecalis [3], 0.4 µg/mL (≈ 0.468 µM); in the assay with Haemophilus influenzae [4] it was 6.25 µg/mL (≈ 7.31 µM); in the assay on Streptococcus pneumoniae [5], no more than 0.05 µg/mL; against Staphylococcus aureus [6], 0.2 µg/mL (≈ 0.234 µM). For the same compound, the MIC against Streptococcus pneumoniae [7] is no more than 0.05 µg/mL; in the assay with Streptococcus pneumoniae [8] it was no more than 0.05 µg/mL; in the assay with Staphylococcus aureus [9] it was greater than 50 µg/mL; in the assay with Streptococcus pyogenes it was no more than 0.05 µg/mL; against Haemophilus influenzae [10], 3.13 µg/mL (≈ 3.66 µM); against Enterococcus faecalis [11], 0.1 µg/mL (≈ 0.117 µM). The MIC with Streptococcus pneumoniae [12] amounted to 0.78 µg/mL (≈ 0.912 µM); against Streptococcus pneumoniae [13] it was 0.2 µg/mL (≈ 0.234 µM); in assay [14] it was 0.2 µg/mL (≈ 0.234 µM).

In the case of `C=C[C@]12OC(=O)N(CCCCn3cnc(-c4cnc(OC)nc4)c3)[C@@H]1[C@@H](C)C(=O)[C@H](C)C[C@@](C)(OC)[C@H](O[C@@H]1O[C@H](C)C[C@H](N(C)C)[C@H]1O)[C@@H](C)C(=O)[C@@H](C)C(=O)O[C@@H]2CC`, the MIC in assay [1] was 0.1 µg/mL (≈ 0.117 µM); with Streptococcus pneumoniae [2], 0.2 µg/mL (≈ 0.234 µM); with Enterococcus faecalis [3], 0.4 µg/mL (≈ 0.468 µM); in the assay with Haemophilus influenzae [4] it was 6.25 µg/mL (≈ 7.31 µM); in the assay on Streptococcus pneumoniae [5], no more than 0.05 µg/mL; against Staphylococcus aureus [6], 0.1 µg/mL (≈ 0.117 µM). Moreover, the MIC against Streptococcus pneumoniae [7] was no more than 0.05 µg/mL; against Streptococcus pneumoniae [8], no more than 0.05 µg/mL; against Staphylococcus aureus [9] it was greater than 50 µg/mL; against Streptococcus pyogenes, no more than 0.05 µg/mL; against Haemophilus influenzae [10], 0.78 µg/mL (≈ 0.912 µM); with Enterococcus faecalis [11], no more than 0.05 µg/mL. The MIC against Streptococcus pneumoniae [12] was 0.78 µg/mL (≈ 0.912 µM); in the assay on Streptococcus pneumoniae [13], 0.4 µg/mL (≈ 0.468 µM); in assay [14] it was 0.1 µg/mL (≈ 0.117 µM).

Turning to `C=C[C@]12OC(=O)N(CCCCn3cnc(-c4ccc(OC)nc4)c3C)[C@@H]1[C@@H](C)C(=O)[C@H](C)C[C@@](C)(OC)[C@H](O[C@@H]1O[C@H](C)C[C@H](N(C)C)[C@H]1O)[C@@H](C)C(=O)[C@@H](C)C(=O)O[C@@H]2CC`, the MIC in [1] was 0.1 µg/mL (≈ 0.115 µM); in the assay on Streptococcus pneumoniae [2], 0.2 µg/mL (≈ 0.23 µM); in the assay with Enterococcus faecalis [3], 1.56 µg/mL (≈ 1.8 µM); in the assay on Haemophilus influenzae [4], 6.25 µg/mL (≈ 7.2 µM); in the assay with Streptococcus pneumoniae [5], no more than 0.05 µg/mL; against Staphylococcus aureus [6], 0.2 µg/mL (≈ 0.23 µM). Besides, the MIC was no more than 0.05 µg/mL against Streptococcus pneumoniae [7]; no more than 0.05 µg/mL with Streptococcus pneumoniae [8]; greater than 50 µg/mL against Staphylococcus aureus [9]; no more than 0.05 µg/mL in the assay with Streptococcus pyogenes; 1.56 µg/mL (≈ 1.8 µM) in the assay on Haemophilus influenzae [10]; 0.2 µg/mL (≈ 0.23 µM) in the assay on Enterococcus faecalis [11]. For the same compound, the MIC in the assay with Streptococcus pneumoniae [12] was determined as 1.56 µg/mL (≈ 1.8 µM); with Streptococcus pneumoniae [13], 0.4 µg/mL (≈ 0.461 µM); in assay [14], 0.4 µg/mL (≈ 0.461 µM).

For the compound `C=C[C@]12OC(=O)N(CCCCn3ccc4nc(C(C)=O)ccc43)[C@@H]1[C@@H](C)C(=O)[C@H](C)C[C@@](C)(OC)[C@H](O[C@@H]1O[C@H](C)C[C@H](N(C)C)[C@H]1O)[C@@H](C)C(=O)[C@@H](C)C(=O)O[C@@H]2CC`, the MIC in assay [1] is 0.1 µg/mL (≈ 0.119 µM); in the assay with Streptococcus pneumoniae [2], 0.2 µg/mL (≈ 0.238 µM); against Enterococcus faecalis [3], 6.25 µg/mL (≈ 7.45 µM); against Haemophilus influenzae [4] it was 3.13 µg/mL (≈ 3.73 µM); against Streptococcus pneumoniae [5], no more than 0.05 µg/mL; with Staphylococcus aureus [6], 0.1 µg/mL (≈ 0.119 µM). In addition, the MIC in the assay with Streptococcus pneumoniae [7] was no more than 0.05 µg/mL; with Streptococcus pneumoniae [8], no more than 0.05 µg/mL; against Staphylococcus aureus [9] it was greater than 50 µg/mL; against Streptococcus pyogenes, no more than 0.05 µg/mL; against Haemophilus influenzae [10], 0.2 µg/mL (≈ 0.238 µM); in the assay on Enterococcus faecalis [11], 0.2 µg/mL (≈ 0.238 µM). The MIC against Streptococcus pneumoniae [12] came out at 0.78 µg/mL (≈ 0.93 µM); in the assay with Streptococcus pneumoniae [13], 3.13 µg/mL (≈ 3.73 µM); in assay [14], 0.1 µg/mL (≈ 0.119 µM).

For `CC[C@H]1OC(=O)[C@H](C)[C@@H](O[C@H]2C[C@@](C)(OC)[C@@H](O)[C@H](C)O2)[C@H](C)[C@@H](O[C@@H]2O[C@H](C)C[C@H](N(C)C)[C@H]2O)[C@](C)(OC)C[C@@H](C)C(=O)[C@H](C)[C@@H](O)[C@]1(C)O` [CLARITHROMYCIN], the MIC is 0.2 µg/mL (≈ 0.267 µM) in assay [1]; 3.13 µg/mL (≈ 4.18 µM) in the assay with Streptococcus pneumoniae [2]; greater than 50 µg/mL with Enterococcus faecalis [3]; 6.25 µg/mL (≈ 8.36 µM) in the assay on Haemophilus influenzae [4]; no more than 0.05 µg/mL with Streptococcus pneumoniae [5]; 0.4 µg/mL (≈ 0.535 µM) in the assay with Staphylococcus aureus [6]. The MIC against Streptococcus pneumoniae [7] is no more than 0.05 µg/mL; in the assay on Streptococcus pneumoniae [8], no more than 0.05 µg/mL; with Staphylococcus aureus [9] it was greater than 50 µg/mL; in the assay on Streptococcus pyogenes, no more than 0.05 µg/mL; with Haemophilus influenzae [10], 0.78 µg/mL (≈ 1.04 µM); with Enterococcus faecalis [11] it was 0.78 µg/mL (≈ 1.04 µM). The figures for the MIC (in the assay with Streptococcus pneumoniae [12]; against Streptococcus pneumoniae [13]; in [14]) were 6.25 µg/mL (≈ 8.36 µM), greater than 50 µg/mL and 0.2 µg/mL (≈ 0.267 µM), respectively.

As to `C=C[C@]12OC(=O)N(CCCCn3cc(Cl)c4ncccc43)[C@@H]1[C@@H](C)C(=O)[C@H](C)C[C@@](C)(OC)[C@H](O[C@@H]1O[C@H](C)C[C@H](N(C)C)[C@H]1O)[C@@H](C)C(=O)[C@@H](C)C(=O)O[C@@H]2CC`, the MIC is 0.1 µg/mL (≈ 0.12 µM) in [1]; 0.1 µg/mL (≈ 0.12 µM) in the assay on Streptococcus pneumoniae [2]; 1.56 µg/mL (≈ 1.88 µM) against Enterococcus faecalis [3]; 3.13 µg/mL (≈ 3.76 µM) against Haemophilus influenzae [4]; no more than 0.05 µg/mL in the assay with Streptococcus pneumoniae [5]; 0.2 µg/mL (≈ 0.241 µM) with Staphylococcus aureus [6]. Further, the MIC is no more than 0.05 µg/mL with Streptococcus pneumoniae [7]; no more than 0.05 µg/mL against Streptococcus pneumoniae [8]; greater than 50 µg/mL in the assay with Staphylococcus aureus [9]; no more than 0.05 µg/mL against Streptococcus pyogenes; 0.78 µg/mL (≈ 0.938 µM) against Haemophilus influenzae [10]; 0.1 µg/mL (≈ 0.12 µM) in the assay with Enterococcus faecalis [11]. For the same compound, the MIC against Streptococcus pneumoniae [12] turned out to be 0.78 µg/mL (≈ 0.938 µM); against Streptococcus pneumoniae [13] it was 3.13 µg/mL (≈ 3.76 µM); in assay [14] it was 0.1 µg/mL (≈ 0.12 µM).
